We go through 7 molecules from patent publication US11192869B2, “CFTR regulators and methods of use thereof” (THE REGENTS OF THE UNIVERSITY OF CALIFORNIA, priority 2015, dated 2021).

“Also recorded” adds a separate entry of the source. Where two headings read alike, the source gives them in different places. Where a SMILES comes first, the peptide text is derived from it. Bridges are numbered along the chain shown (N, C = ends).

Data set [1] is described as follows: Ocular toxicity after chronic topical dosing (slit-lamp, lissamine green). In kind it is in vivo. Particulars: chronically treated mice. Here is the method: (§1) Lissamine green staining. To assess corneal epithelial disruption, 5 μL of lissamine green (LG) dye (1%) was applied to the ocular surface of isofluorane-anesthetized mice. Photographs of the eye were taken using a Nikon Digital camera adapted to an Olympus Zoom Stereo Microscope (Olympus, Center Valley, Pa., USA). Each corneal quadrant was scored on a 3-point scale by one blinded, trained observer, with the extent of staining in each quadrant classified as: 0, no staining; 1, sporadic (involving <25% of the total surface) staining; grade 2, diffuse punctate staining (25-75%); and grade 3, coalesced punctate staining (>75%). The total grade is reported as the sum of scores from all four quadrants, ranging from 0 to 12.

For data set [2] the following is noted: mouse, in vivo, topical or ocular.
The conditions of data set [3]: mouse, in vivo.
The target of another data set is T1, human wild-type CFTR (Homo sapiens, UniProt P13569).
T1 construct: expressed in transfected cells
Description: Short-circuit current in FRT cells expressing wild-type human CFTR. In kind it is cell-based. Particulars: for CFTR activation (in words): short-circuit current. Here is the method:
Short-circuit current measurement. Short-circuit current was measured in FRT cells stably expressing wild-type human CFTR cultured on porous filters as described. The basolateral solution contained 130 mM NaCl, 2.7 mM KCl, 1.5 mM KH2PO4, 1 mM CaCl2, 0.5 mM MgCl2, 10 mM glucose, and 10 mM Na-HEPES (pH 7.3, 37° C.). In the apical solution 65 mM NaCl was replaced by Na gluconate, and CaCl2 was increased to 2 mM, and the basolateral membrane was permeabilized with 250 μg/ml amphotericin B. Short-circuit current was measured in freshly harvested adult mouse colon at 37° C. using symmetrical Krebs-bicarbonate buffer.
Short-circuit current. Fischer rat thyroid (FRT) cells stably expressing wild-type human CFTR were cultured on Snapwell inserts (Corning Costar, Corning N.Y., USA) for short-circuit current (Isc) measurements. After 6-9 days in culture, when the transepithelial resistance was >1000 Ω/cm^2, the inserts were mounted in an Ussing chamber system (World Precision Instruments, Sarasota, Fla., USA). The basolateral solution contained 130 mM NaCl, 2.7 mM KCl, 1.5 mM KH2PO4, 1 mM CaCl2, 0.5 mM MgCl2, 10 mM glucose, and 10 mM Na-HEPES (pH 7.3). In the apical bathing solution, 65 mM NaCl was replaced by Na gluconate, and CaCl2 was increased to 2 mM. Both solutions were bubbled with air and maintained at 37° C. The basolateral membrane was permeabilized with 250 μg/ml amphotericin B (26, 27). Hemichambers were connected to a DVC-1000 voltage clamp via Ag/AgCl electrodes and 3 M KCl agar bridges for Isc recording.

Data set [4] in a line: Tear film pharmacokinetics by LC/MS. The following applies: from quantity recovered vs EC50.
For data set [5], the system named is mouse model of aqueous-deficient dry eye produced by lacrimal gland excision. The data set can be described thus: Lacrimal gland excision (LGE) mouse model of dry eye. It is filed as in vivo. The following applies: 0.1 nmol topically three times daily. Here is the method:
Tear secretion. To measure unstimulated tear production, phenol red threads (Zone-Quick, Oasis Medical, Glendora, Calif., USA) were placed for 10 s in the lateral canthi of isofluorane-anesthetized mice using jewelers' forceps. Tear volume was measured as the length of thread wetting, as visualized under a dissecting microscope. Serial measurements were used to evaluate compound pharmacodynamics after application of 2-μL drops of compound formulations (50-100 μM compound in PBS containing 0.5% polysorbate and 0.5% DMSO) comparing to vehicle.
as §1
Mouse model of dry eye produced by lacrimal gland excision. […]

A further data set relates to tear secretion. Description: Tear secretion (phenol red thread). In kind it is in vivo, mouse. The following applies: for increase of tear fluid secretion: single topical dose, for (at least) four hours.
The next data set relates to ocular surface. The data set can be described thus: Ocular surface potential difference measurements. It is filed as in vivo, mouse. The following applies: wild-type mice, 1-10 μM. Here is the method: Ocular surface potential difference measurements. Open-circuit transepithelial PD were measured continuously in anesthetized mice in response to serial perfusions of different solutions over the ocular surface, as described (21). Mice were anesthetized with Avertin (2,2,2-tribromoethanol, 125 mg/kg intraperitoneal, Sigma-Aldrich, St. Louis, Mo., USA), and core temperature was maintained at 37° C. using a heating pad. Eyes were oriented with the cornea and conjunctiva facing upward and exposed by retracting the eyelid with cross-action forceps. Solutions were isosmolar (320±10 mOsM; compositions provided in ref. 21) and contained 10μ[…] □ indomethacin to prevent CFTR activation by prostaglandins. The ocular surface was perfused at 6 mL/min through plastic tubing using a multireservoir gravity pinch-valve system (ALA Scientific, Westbury, N.Y., USA) and variable-flow peristaltic pump (medium flow model; Fisher Scientific, Fair Lawn, N.J., USA). A probe catheter was fixed 1 mm above the cornea using a micropositioner and a suction cannula was positioned 3 mm from the orbit. The measuring electrode was in contact to the perfusion catheter and connected to a high-impedance voltmeter (IsoMilivolt Meter; WPI). The reference electrode was grounded via a winged 21-gauge needle filled with isosmolar saline, and inserted subcutaneously in the abdomen. Measuring and reference electrodes consisted of Ag/AgCl with 3 M KCl agar bridges.
Ocular surface potential difference measurements. Open-circuit transepithelial PD were measured continuously in anesthetized mice in response to serial perfusions of different solutions over the ocular surface, as described (21). Mice were anesthetized with Avertin (2,2,2-tribromoethanol, 125 mg/kg intraperitoneal, Sigma-Aldrich, St. Louis, Mo., USA), and core temperature was maintained at 37° C. using a heating pad. Eyes were oriented with the cornea and conjunctiva facing upward and exposed by retracting the eyelid with cross-action forceps. […]

For data set [6] the following is noted: juvenile rats; cited from earlier work.
Data set [7] deals with loperamide-induced mouse model of constipation. The data set can be described thus: Loperamide-induced mouse model of constipation.
The conditions of data set [8]: cited from earlier work.

T1 sequence (P13569 whole entry): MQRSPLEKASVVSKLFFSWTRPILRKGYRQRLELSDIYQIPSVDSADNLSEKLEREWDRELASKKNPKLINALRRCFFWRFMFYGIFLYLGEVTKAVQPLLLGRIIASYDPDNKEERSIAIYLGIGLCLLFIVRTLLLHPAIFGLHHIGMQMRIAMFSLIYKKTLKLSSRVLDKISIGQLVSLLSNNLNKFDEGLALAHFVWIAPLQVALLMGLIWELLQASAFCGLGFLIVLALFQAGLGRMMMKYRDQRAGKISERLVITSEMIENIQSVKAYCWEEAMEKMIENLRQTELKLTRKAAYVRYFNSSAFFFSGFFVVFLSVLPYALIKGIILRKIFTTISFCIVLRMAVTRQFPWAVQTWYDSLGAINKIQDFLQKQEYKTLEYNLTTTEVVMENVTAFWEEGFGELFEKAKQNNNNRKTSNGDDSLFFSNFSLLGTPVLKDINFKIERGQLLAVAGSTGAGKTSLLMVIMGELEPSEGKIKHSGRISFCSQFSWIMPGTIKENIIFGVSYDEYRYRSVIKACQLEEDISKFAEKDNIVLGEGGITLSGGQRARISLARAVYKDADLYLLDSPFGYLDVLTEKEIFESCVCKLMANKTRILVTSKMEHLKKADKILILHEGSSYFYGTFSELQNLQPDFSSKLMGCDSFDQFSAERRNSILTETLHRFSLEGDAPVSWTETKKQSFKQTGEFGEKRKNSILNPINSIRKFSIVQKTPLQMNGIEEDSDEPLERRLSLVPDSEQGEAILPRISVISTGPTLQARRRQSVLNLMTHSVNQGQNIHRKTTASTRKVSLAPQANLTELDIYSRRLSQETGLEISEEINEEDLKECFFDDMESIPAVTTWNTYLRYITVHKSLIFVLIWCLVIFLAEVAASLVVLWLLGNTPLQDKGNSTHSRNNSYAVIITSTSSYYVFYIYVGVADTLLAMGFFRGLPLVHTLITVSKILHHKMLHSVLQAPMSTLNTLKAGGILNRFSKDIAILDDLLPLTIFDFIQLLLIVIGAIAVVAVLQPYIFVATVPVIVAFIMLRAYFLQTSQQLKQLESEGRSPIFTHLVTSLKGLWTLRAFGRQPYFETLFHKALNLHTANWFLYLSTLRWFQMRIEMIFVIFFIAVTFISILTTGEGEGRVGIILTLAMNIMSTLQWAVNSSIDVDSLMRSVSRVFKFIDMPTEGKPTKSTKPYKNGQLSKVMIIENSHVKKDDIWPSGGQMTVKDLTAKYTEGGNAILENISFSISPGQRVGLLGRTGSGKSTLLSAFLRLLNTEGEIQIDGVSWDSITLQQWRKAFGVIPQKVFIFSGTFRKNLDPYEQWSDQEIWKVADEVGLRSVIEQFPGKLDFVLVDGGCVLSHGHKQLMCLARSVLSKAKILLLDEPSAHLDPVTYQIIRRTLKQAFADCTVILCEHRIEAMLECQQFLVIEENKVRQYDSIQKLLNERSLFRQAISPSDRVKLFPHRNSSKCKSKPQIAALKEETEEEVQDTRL

With `CCN(CC)c1nc(Nc2ccccc2)nc(OC(C(F)(F)F)C(F)(F)F)n1` [CFTRact-K089], in data set [1], the “LG staining, corneal or conjunctival epithelial disruption” value was “no corneal or conjunctival epithelial disruption” and the “ocular toxicity by slit-lamp evaluation” value is “no signs of ocular toxicity”. For the same molecule, the “tear film bioavailability (in words)” value in [2] is listed as “sustained tear film bioavailability”. For the same molecule, the “systemic absorption (in words)” value in data set [3] is recorded as “without detectable systemic absorption”. For the same molecule, the CFTR activation on human wild-type CFTR (Isc) is roughly 50 % Vmax. Besides, at human wild-type CFTR (wild-type CFTR), the “CFTR activation (in words)” value is given as “fully activated CFTR”. Also, in data set [4], the “duration of therapeutic levels in tear fluid” value is given as “predicts therapeutic levels for at least six hours”. Moreover, in data set [5], the “corneal / ocular surface epithelial disruption after LGE” value is given as “prevents corneal epithelial disruption; also recorded: fully prevented; also recorded: prevented ocular surface epithelial disruption” and the “tear secretion / tear volume after LGE” value is recorded as “restored tear secretion”. Moreover, the “tear fluid secretion in CF mice” value in the data set on tear secretion (CF mice) is on record as “no effect”. The “increase of tear fluid secretion” value in the data set on tear secretion was “doubled; also recorded: approximately two-fold”. For the same molecule, the “change in ocular surface PD (in words)” value with ocular surface is on record as “large hyperpolarizations”.
With `CC(C)Cn1c(=O)n(C)c(=O)c2[nH]cnc21` [IBMX, 3-isobutyl-1-methylxanthine, reference compound], in the data set with tear secretion (after 2 hours), the “persistence of tear secretion effect” value was “transient and undetectable after 2 hours”.
`CC(C)(C)c1cc(C(C)(C)C)c(NC(=O)c2c[nH]c3ccccc3c2=O)cc1O` [VX-770, reference compound]: the “adverse finding on chronic application” value in data set [6] is given as “cataracts”. The “CFTR activation (in words)” value on human wild-type CFTR (wild-type CFTR) is “relatively little activity; also recorded: relatively weak activity”. Also, on human wild-type CFTR (wild-type CFTR, read-out: maximal activation of CFTR), the Emax came to 15%. In the data set on tear secretion, the “increase of tear fluid secretion” value is reported as “little tear secretion”. Also, the “change in ocular surface PD (in words)” value in the data set on ocular surface was “minimal changes”.
On to `Cn1c(=O)c(-c2cc([N+](=O)[O-])ccc2N)nc2ccccc21` [inactive chemical analog of CFTRact-J027, reference compound], for which the “efficacy of inactive analog in wildtype mice” value in data set [7] (loperamide model, wildtype mice) was “nor was an inactive chemical analog of CFTRact-J027 effective”.
As for `C[C@@H]1NC(=O)[C@@H]2CCCN2C(=O)[C@H](CC(N)=O)NC(=O)[C@@H]2CSSC[C@H](N)C(=O)N[C@H]3CSSC[C@H](NC1=O)C(=O)N[C@@H]([C@@H](C)O)C(=O)NCC(=O)N[C@H](C(=O)N[C@@H](Cc1ccc(O)cc1)C(=O)O)CSSC[C@H](NC(=O)[C@H](Cc1ccc(O)cc1)NC(=O)[C@H](CCC(=O)O)NC3=O)C(=O)N2` [linaclotide, reference compound] (H-CCEYCCNPACTGCY-OH; disulfide 1-6, 2-10, 5-13), the “stool output, % of the maximal CFTRact-J027 response” value in data set [7] (oral 0.5 mg/kg, loperamide-treated mice) is on record as 35%. The “patients in whom effective” value in data set [8] (chronic constipation patients) is recorded as roughly 20%.
With `CCCCC(F)(F)[C@@]1(O)CC[C@H]2[C@@H](CC(=O)[C@@H]2CCCCCCC(=O)O)O1` [lubiprostone], the “patients in whom effective” value in [8] (IBS-C patients) is roughly 13%.
As for cholera toxin [reference compound], in the data set on tear secretion (mouse, in vivo), the “persistence of tear secretion effect” value is “transient and undetectable after 2 hours”.
